Test results as given in ChEMBL document CHEMBL5579822, “Targeting cyclin-dependent kinases: From pocket specificity to drug selectivity” (Eur J Med Chem, 2024).
Values belong to the molecule of their own block, whether it stands above or below them.

Assays:
[1] = target: T1, Cyclin-dependent kinase 7 (Homo sapiens, UniProt P50613); assay: biochemical
[2] = target: Cyclin-dependent kinase 5 (Homo sapiens, UniProt Q00535)
[3] = target: T2, Cyclin-dependent kinase 4 (Homo sapiens, UniProt P11802)
T2 sequence (P11802 whole entry): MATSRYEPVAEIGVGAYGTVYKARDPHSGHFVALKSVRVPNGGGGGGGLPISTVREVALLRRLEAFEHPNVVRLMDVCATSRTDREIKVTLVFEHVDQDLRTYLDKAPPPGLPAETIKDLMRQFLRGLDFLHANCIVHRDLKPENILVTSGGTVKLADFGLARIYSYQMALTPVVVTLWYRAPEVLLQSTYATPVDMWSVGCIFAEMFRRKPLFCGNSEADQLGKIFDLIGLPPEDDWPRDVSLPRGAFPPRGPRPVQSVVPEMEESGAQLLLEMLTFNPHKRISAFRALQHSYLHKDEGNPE

[4] = target: T3, Cyclin-dependent kinase 6 (Homo sapiens, UniProt Q00534)
T3 sequence (Q00534 whole entry): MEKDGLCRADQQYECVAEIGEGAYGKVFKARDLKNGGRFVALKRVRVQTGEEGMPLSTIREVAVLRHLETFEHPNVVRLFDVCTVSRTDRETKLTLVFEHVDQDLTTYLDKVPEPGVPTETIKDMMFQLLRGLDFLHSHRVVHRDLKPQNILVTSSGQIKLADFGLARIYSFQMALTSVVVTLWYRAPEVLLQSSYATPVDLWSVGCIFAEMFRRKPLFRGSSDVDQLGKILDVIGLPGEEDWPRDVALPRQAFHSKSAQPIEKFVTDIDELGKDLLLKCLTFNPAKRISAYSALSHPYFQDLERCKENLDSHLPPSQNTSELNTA

[5] = target: T4, Cyclin-dependent kinase 9 (Homo sapiens, UniProt P50750)
T4 sequence (P50750 whole entry): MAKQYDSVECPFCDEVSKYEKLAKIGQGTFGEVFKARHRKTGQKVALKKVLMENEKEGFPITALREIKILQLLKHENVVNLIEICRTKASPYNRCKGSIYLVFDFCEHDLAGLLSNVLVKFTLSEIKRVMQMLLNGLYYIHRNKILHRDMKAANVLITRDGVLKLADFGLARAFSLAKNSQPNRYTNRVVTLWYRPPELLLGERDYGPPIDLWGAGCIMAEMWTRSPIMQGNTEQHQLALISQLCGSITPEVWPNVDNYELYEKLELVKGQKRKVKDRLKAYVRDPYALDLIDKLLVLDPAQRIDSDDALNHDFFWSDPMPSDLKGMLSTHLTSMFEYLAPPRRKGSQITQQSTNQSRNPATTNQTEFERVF

[6] = target: T5, Cyclin-dependent kinase 2 (Homo sapiens, UniProt P24941)
[7] = target: Cyclin-dependent kinase 13 (Homo sapiens, UniProt Q14004)
CDK12/Cyclin K = CDK12/Cyclin K (Homo sapiens, UniProt Q9NYV4)
Sequence of CDK12/Cyclin K (O75909 whole entry): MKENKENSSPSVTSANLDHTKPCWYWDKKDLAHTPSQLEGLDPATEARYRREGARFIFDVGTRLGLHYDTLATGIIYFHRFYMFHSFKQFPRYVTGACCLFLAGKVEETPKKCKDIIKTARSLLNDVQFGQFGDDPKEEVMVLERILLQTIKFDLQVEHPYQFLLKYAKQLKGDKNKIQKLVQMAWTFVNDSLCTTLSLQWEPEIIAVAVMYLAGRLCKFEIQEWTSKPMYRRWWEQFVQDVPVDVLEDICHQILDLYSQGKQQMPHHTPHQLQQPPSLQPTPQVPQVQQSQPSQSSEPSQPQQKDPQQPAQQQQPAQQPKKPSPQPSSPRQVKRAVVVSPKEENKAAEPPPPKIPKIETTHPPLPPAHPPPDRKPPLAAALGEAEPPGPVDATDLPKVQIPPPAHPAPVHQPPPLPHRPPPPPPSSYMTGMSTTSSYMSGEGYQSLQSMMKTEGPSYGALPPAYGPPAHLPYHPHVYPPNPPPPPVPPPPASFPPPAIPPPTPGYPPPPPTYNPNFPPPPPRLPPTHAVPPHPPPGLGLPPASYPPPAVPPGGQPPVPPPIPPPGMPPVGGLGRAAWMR
Sequence of CDK12/Cyclin K (Q9NYV4 whole entry): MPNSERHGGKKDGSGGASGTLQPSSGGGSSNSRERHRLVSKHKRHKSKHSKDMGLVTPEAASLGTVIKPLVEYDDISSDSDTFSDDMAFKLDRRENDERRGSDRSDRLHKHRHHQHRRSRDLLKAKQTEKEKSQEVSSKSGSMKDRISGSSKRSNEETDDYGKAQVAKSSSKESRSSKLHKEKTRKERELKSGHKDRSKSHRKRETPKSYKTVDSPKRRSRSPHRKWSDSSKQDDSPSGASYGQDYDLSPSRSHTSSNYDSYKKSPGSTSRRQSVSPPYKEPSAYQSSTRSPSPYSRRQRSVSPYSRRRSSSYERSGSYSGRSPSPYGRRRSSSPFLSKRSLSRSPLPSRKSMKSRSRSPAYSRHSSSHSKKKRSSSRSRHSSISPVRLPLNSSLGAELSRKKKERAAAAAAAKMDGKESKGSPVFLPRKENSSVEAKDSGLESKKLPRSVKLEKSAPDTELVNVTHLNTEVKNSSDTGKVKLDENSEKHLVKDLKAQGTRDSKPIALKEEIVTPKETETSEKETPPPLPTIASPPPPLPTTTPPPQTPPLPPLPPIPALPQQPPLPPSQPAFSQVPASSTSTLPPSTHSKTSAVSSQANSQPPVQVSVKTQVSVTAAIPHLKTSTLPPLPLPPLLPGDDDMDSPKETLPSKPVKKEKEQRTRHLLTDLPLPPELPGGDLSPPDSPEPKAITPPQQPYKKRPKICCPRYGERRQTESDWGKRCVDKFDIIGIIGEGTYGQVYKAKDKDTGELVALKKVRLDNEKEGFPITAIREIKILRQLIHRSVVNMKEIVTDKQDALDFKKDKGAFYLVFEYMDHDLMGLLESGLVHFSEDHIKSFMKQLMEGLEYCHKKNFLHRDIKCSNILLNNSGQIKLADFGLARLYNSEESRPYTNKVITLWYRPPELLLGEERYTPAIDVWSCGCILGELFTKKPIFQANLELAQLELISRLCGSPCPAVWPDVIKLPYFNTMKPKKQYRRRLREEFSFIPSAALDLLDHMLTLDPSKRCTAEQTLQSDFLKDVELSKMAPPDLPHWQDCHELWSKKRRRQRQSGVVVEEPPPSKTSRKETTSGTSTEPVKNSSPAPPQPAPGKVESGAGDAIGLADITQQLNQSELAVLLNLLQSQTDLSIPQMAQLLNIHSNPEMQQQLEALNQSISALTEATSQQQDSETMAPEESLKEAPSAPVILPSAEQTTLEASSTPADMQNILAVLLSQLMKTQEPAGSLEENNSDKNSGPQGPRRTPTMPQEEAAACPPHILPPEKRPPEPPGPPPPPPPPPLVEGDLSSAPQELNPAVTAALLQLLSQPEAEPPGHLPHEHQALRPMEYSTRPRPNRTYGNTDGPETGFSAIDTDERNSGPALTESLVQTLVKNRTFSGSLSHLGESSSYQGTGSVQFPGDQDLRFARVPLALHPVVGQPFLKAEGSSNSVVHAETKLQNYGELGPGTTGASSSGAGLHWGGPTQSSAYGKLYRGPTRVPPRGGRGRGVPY

[8] = target: Cyclin-dependent kinase 13/Cyclin-K (Homo sapiens, UniProt Q14004)
[9] = target: T1, Cyclin-dependent kinase 7
[10] = target: Cyclin-dependent kinase 1 (Homo sapiens, UniProt P06493)
Sequence of Cyclin-dependent kinase 1 (P06493 whole entry): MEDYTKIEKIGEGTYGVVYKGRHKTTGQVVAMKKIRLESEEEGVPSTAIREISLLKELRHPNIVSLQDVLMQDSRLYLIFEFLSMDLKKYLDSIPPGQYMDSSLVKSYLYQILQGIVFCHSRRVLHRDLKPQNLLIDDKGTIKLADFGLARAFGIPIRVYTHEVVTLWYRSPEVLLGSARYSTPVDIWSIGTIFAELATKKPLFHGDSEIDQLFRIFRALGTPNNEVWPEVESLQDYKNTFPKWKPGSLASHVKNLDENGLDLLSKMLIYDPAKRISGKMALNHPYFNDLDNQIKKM

[11] = target: T3, Cyclin-dependent kinase 6; remark: listed apart in the source
[12] = target: T5, Cyclin-dependent kinase 2; remark: listed apart in the source
[13] = target: T2, Cyclin-dependent kinase 4; remark: listed apart in the source
[14] = target: T4, Cyclin-dependent kinase 9; remark: listed apart in the source
[15] = target: T4, Cyclin-dependent kinase 9; assay: Binding affinity to CDK9 (unknown origin) assessed as inhibition constant
[16] = target: T3, Cyclin-dependent kinase 6; assay: Binding affinity to CDK6 (unknown origin) assessed as inhibition constant
[17] = target: T5, Cyclin-dependent kinase 2; assay: Binding affinity to CDK2 (unknown origin) extracted from insect cells assessed as inhibition constant; type: cell-free, Insect cell
[18] = target: T2, Cyclin-dependent kinase 4; assay: Binding affinity to CDK4 (unknown origin) assessed as inhibition constant

T1 sequence (P50613 whole entry): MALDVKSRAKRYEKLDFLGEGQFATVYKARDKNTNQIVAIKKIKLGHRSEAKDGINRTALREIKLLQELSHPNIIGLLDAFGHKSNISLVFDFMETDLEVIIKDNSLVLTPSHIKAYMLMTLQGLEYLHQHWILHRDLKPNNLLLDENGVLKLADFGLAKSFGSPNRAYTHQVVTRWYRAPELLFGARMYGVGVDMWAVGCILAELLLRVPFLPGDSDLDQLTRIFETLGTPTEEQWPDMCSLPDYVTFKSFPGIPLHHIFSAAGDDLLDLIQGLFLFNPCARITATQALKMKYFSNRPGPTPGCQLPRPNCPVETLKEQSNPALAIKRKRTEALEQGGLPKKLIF
Sequence of Cyclin-dependent kinase 5 (Q00535 whole entry): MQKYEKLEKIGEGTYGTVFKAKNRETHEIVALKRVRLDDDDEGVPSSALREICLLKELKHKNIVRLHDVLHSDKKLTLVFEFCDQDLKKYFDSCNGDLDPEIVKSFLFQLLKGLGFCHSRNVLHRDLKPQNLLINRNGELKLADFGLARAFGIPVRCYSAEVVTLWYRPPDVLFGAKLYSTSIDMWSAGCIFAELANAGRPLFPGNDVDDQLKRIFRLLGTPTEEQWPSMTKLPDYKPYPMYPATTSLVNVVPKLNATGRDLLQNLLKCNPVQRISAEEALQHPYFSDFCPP

IC50 [1]: 0.33 nM
Structure (SMILES): Clc1cnc(N[C@H]2CCCNC2)nc1-c1c[nH]c2ccccc12

IC50 [2]: > 9400 nM | IC50 [3]: > 9400 nM | IC50 [4]: > 9400 nM
Structure (SMILES): CC(C)c1cnn2c(NCc3ccccc3)cc(NC[C@H]3CCNC[C@@H]3O)nc12 [CT-7001]

IC50 [5]: 8 nM | IC50 [6]: > 500 nM
Structure (SMILES): N[C@H]1CCN(c2c3c(nc4ccc(-c5ccncc5)cc24)CCCC3)C1

IC50 [7]: 620 nM
Structure (SMILES): CN(C)C/C=C/C(=O)Nc1ccc(C(=O)Nc2cccc(Nc3ncc(Cl)c(-c4c[nH]c5ccccc45)n3)c2)cc1

EC50 (CDK12/Cyclin K): 12 nM
Structure (SMILES): CC(C)c1nn(-c2c(Cl)cccc2Cl)c2nc(Cc3ccc(OCCO)cc3)[nH]c(=O)c12

IC50 [8]: 690 nM
Structure (SMILES): CN(C)C/C=C/C(=O)Nc1ccc(C(=O)N2CCC[C@@H](Nc3ncc(Cl)c(-c4c[nH]c5ccccc45)n3)C2)cc1

EC50 (CDK12/Cyclin K): 9 nM
Structure (SMILES): CC(C)n1cnc2c(NCc3nc4cc(Cl)c(Cl)cc4[nH]3)nc(N3CCOCC3)nc21

IC50 [9]: 80 nM
Structure (SMILES): CN(C)C/C=C/C(=O)Nc1ccc(C(=O)N[C@@]2(C)CCC[C@@H](Nc3ncc(Cl)c(-c4c[nH]c5ccccc45)n3)C2)nc1

IC50 [5]: 2 nM
Structure (SMILES): N[C@H]1CCN(c2c3c(nc4ccc(-c5ccnc(NC(=O)C6CC6)c5)cc24)CCCC3)C1

IC50 [10]: < 10000 nM | Kd [11]: > 10000 nM | IC50 [12]: > 10000 nM | IC50 [13]: > 10000 nM | Kd [14]: > 10000 nM
Structure (SMILES): Cn1cc(-n2cnc3c(NCc4nc5cc(Cl)c(Cl)cc5[nH]4)nc(N4CCOCC4)nc32)cn1

Ki [15]: 9.6 nM | Ki [16]: 0.2 nM | Ki [17]: 5.9 nM | Ki [18]: 0.2 nM
Structure (SMILES): CC(=O)c1c(C)c2cnc(NC3CCN(S(C)(=O)=O)CC3)nc2n(C2CCCC2)c1=O
